In patent US10501452B2, “Lactam compound derivative and application thereof” (NHWA PHARMA. CORPORATION, priority 2015, dated 2019):
Where two headings read alike, the source gives them in different places.

Tests used:
[1] = system: Apomorphine induced clambering in mice; assay: Apomorphine induced clambering assay of mice; type: in vivo; conditions: for ED50: Mus musculus, po, read-out: Apomorphine induced clambering (ED50, po, mg/kg); for improvement of apomorphine induced clambering symptoms (in words): compared with risperidone
Procedure: Healthy KM mice, male, with body weight of 18-22 g, were provided by Qinglongshan Animal Cultivation Center, Nanjing.
Apomorphine provided by Sigma Company was dissolved in 0.9% NaCl (containing 0.1% vitamin C) before use, and was freshly formulated before use.
Vitamin C, F20061113, was provided by Sinopharm Chemical Reagent Co. Ltd.
Instruments: self-made clambering cage, chronograph.
Procedures: apomorphine induced clambering assay of mice
After 5 min of adaptation, the behavior of the mice at 10-11, 20-21, and 30-31 min after the injection of apomorphine were observed and scored.

[2] = in vivo; conditions: both, Kunming, mouse, in vivo, po
Procedure: (§1) The durations of the mice to maintain the posture with the two forepaws on the bars were recorded, and 30 s of spasticity without moving was considered as the positive response. In the case the forepaws of the mice were not put down persistently, the observation was terminated at 60 s. The numbers of animals with positive response in each of the compound dosage groups were counted.

[3] = system: catalepsy in mice; assay: in vivo
Procedure: as §1

[4] = target: Histamine H1 receptor (Cavia porcellus (Guinea pig), UniProt P31389); assay: Histamine H1 receptor binding assay (3H-pyrilamine); conditions: for Ki: guinea pig cerebellum membrane, 3H-pyrilamine
Sequence of Histamine H1 receptor (P31389 whole entry): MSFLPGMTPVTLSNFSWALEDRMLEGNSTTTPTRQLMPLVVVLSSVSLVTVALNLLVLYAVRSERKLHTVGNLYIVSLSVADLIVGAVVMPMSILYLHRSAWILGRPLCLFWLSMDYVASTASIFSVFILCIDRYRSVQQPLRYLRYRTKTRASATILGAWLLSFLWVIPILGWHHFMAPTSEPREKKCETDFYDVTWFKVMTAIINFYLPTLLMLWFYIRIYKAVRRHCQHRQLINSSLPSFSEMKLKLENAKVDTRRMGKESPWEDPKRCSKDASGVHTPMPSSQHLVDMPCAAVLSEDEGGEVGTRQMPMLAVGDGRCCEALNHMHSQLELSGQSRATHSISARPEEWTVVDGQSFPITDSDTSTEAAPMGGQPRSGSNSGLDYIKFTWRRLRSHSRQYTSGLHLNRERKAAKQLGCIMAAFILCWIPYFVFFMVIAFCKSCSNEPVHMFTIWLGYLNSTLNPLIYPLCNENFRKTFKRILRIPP
Procedure: Preparation of Histamine H1 Receptor Membrane
Guinea pigs were decapitated. […] Vortex mixer was used for blending. Centrifugation was conducted at 48000 g, 4° C. for 10 min. The supernatant was discarded to give pellets, and buffer was added again for washing. Centrifugation was conducted and repeated 3 times.
(§2) Materials for the Receptor Binding Assay
(2) 100 μL of membrane preparation was added into each reaction tube.

[5] = target: 5-HT1A (Rattus norvegicus (Rat), UniProt P19327); assay: 5-HT1A receptor binding assay (3H-8-OH-DPAT); conditions: for Ki: rat cortex membrane, 3H-8-OH-DPAT
Sequence of 5-HT1A (P19327 whole entry): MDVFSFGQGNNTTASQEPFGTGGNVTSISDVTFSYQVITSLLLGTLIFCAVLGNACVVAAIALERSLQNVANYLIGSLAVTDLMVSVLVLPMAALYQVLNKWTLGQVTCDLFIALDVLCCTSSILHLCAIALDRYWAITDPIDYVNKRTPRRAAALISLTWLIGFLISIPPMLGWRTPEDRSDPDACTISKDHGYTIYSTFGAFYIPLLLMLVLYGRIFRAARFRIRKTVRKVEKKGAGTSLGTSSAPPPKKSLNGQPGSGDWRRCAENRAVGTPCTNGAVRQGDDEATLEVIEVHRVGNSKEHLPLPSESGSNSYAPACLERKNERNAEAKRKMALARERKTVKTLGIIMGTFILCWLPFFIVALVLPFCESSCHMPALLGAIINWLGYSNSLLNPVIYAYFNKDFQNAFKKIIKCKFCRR
Procedure: Rats were decapitated. […] Incubation at 37° C. was conducted for 10 min. […] Centrifugation was conducted and repeated 3 times.
as §2

[6] = target: 5-HT2A (Rattus norvegicus (Rat), UniProt P14842); assay: 5-HT2A receptor binding assay ([3H]-Ketanserin)
Sequence of 5-HT2A (P14842 whole entry): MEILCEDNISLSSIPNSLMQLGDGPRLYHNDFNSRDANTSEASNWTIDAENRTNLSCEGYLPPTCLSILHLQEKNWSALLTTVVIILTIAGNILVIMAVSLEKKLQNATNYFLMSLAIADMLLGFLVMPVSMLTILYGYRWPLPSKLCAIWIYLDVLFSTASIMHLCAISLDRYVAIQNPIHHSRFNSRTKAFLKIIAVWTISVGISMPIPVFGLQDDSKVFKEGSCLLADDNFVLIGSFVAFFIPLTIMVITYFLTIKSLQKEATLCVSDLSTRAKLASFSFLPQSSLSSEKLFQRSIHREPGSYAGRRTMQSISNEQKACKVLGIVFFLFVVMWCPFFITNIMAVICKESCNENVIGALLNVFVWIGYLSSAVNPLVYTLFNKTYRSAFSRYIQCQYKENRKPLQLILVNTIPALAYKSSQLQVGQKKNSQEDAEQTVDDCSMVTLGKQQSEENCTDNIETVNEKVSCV
Procedure: Rats were decapitated. Cortex of brain was rapidly taken on ice, and 3 ml of buffer (0.05 M Tris-HCl buffer: 6.05 g of Tris was dissolved in 1000 ml of double-distilled water, and concentrated HCl was used to adjust to pH 7.5) was added, homogenization was conducted, and then 5 ml of buffer was added. Incubation was conducted at 37° C. for 10 min, the weight of the tubes were adjusted using a balance after incubation. Centrifugation was conducted at 12000 rpm, 4° C. for 20 min, the supernatant was discarded, and 3 ml of buffer was added. Vortex mixer was used for blending, and then 5 ml of buffer was added. Centrifugation was conducted (repeated 3 times). After the centrifugation, the supernatant was discarded, and the pellets were stored at −80° C. for future use.
(1) The prepared membrane was applied with buffer, and homogenizer was used for evenly dispersing. 15 tubes were mixed into a 100 ml container, and appropriate amount of buffer was added to give 50 ml of membrane suspension, which was reserved for future use.
(§7) (2) 100 μL of membrane preparation and 100 μL of buffer were added into each reaction tube.
(3) 100 μL of buffer was added into the total binding tube (TB), 100 μL of Methysergide (final concentration 10^−5M) was added into the nonspecific binding tube (NB), 100 μL of the test compound (final concentration 10^−5M) was added into the specific binding tube (SB) of each test compound.
(5) Each of the reaction tubes was incubated at 37° C. for 15 min. After the reaction was completed, the bound ligands were rapidly filtered under reduced pressure, and sufficiently washed with ice-chilled assay buffer. The filter was taken out and put into a 3 ml scintillation vial, and 2 ml of toluene scintillation cocktail was added and blended.
(6) The scintillation vial were put into Liquid Scintillation Counter for counting. Inhibition rate(I%)=(Total binding tube cpm−compound cpm)/(Total binding tube cpm−nonspecific binding tube cpm)×100%

[7] = system: conditioned avoidance response in rats; assay: animal or person; type: in vivo, rat; conditions: for ED50: po; for performance in the rat CAR model (in words): compared with risperidone; for Therapeutic index: LD50 versus CAR ED50
Procedure: […] of SD rats, male.
Firstly, training the rats with shuttle box:
(1) The rats were allowed for adaption for five minutes;
(2) Conditioned stimulus (CS, light and noise) were started and lasted for 20 s, and at the tenth second, unconditioned stimulus (US, 1.5 mA electric shock) was performed and lasted for 10 s;
(3) Training was conducted 30 times per day for 9 days. The interval between two trainings was set randomly ranged from 20 to 30 s;
(4) Observation indicators:
The animal ran to another compartment during the conditioning stimulus was recorded as “avoidance”;
Animals ran to another compartment during the electric shock was recorded as “escape”;
Grouping of the qualified rats: the qualified rats were divided into negative control group, positive drug groups of each dosage, and compound groups of each dosage according to the principle of randomization, 8 in each group.
Administration Method: Corresponding solvent was administered intragastrically to the negative control group; corresponding dosages of positive drugs were administered intragastrically to the positive drug groups of each dosage; and corresponding dosages of compounds were administered intragastrically to the compound groups of each dosage.
CAR Assay: A CAR assay was performed 1 hour after intragastric administration. The method was the same as the CAR training. The observation indicators were the number of avoidances, the number of escapes, and the number of escape failures.
Statistical Data Processing: Assay data are presented as mean±standard deviation (Mean±SD), the comparison was performed by a combination of one-way ANOVA with post-hoc LSD. The ED50 was calculated using the probit method.

[8] = system: mice; assay: Acute toxicity study (mice); type: in vivo; conditions: intragastric
Procedure: (§3) Example 41: Acute Toxicity Study
(§4) Limit test of sequential assay: KM rats or mice (half male and half female) were randomly divided into several groups (with 2-5 mice in each group), which were respectively the 2000 mg/kg groups for each compound, and the solvent group. 0.2 ml/10 g were administered intragastrically. The deaths of the animals in 3 days were observed. In the case 3 or more animals survived in 3 days without notable abnormity in their life states, the observation was continued until the assay was completed in 7 days. In the case 3 or more animals died in 3 days, the method of median lethal dose was used to determine the LD50.
(§5) Pre-assay for the method of the median lethal dose: KM mice (half male and half female) were randomly divided into several groups (with 4 mice in each group), which were respectively the 500 mg/kg, 200 mg/kg, 50 mg/kg groups for each compound, and the solvent group. 0.2 ml/10 g were administered intragastrically, and the deaths of the animals in 1-3 days were observed.
(§6) Results: The compound of the invention has relatively low acute toxicity.

[9] = Acute toxicity study (mice); type: in vivo; conditions: both sexes, KM, mouse, in vivo, po, intragastric
Procedure: as §3, §4, §5, §6

[10] = target: 5-HT7 receptor (Rattus norvegicus (Rat), UniProt P32305); assay: 5-HT7 receptor binding assay ([3H]-5-CT); conditions: for Ki: rat hypothalamus membrane, [3H]-5-CT
Sequence of 5-HT7 receptor (P32305 whole entry): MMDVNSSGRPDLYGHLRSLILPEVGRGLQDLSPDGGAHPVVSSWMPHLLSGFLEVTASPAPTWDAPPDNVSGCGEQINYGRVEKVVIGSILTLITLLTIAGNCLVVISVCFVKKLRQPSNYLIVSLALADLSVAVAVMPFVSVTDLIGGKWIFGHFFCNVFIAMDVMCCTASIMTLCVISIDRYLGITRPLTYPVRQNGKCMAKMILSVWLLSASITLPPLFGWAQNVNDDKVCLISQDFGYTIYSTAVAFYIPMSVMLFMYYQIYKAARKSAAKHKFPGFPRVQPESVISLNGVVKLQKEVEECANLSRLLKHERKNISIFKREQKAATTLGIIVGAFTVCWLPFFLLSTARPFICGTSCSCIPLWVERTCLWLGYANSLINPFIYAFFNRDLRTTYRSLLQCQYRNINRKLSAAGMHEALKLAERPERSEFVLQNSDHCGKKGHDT
Procedure: Adult SD rats were decapitated. […] Centrifugation was conducted (repeated 3 times).
as §2

[11] = Acute toxicity study (rats); conditions: both sexes, KM, in vivo, po, 2000 mg/kg; rat, intragastric
Procedure: as §3, §4, §6

[12] = target: D2 (Rattus norvegicus (Rat), UniProt P61169); assay: D2 receptor binding assay (3H-Spiperone)
Sequence of D2 (P61169 whole entry): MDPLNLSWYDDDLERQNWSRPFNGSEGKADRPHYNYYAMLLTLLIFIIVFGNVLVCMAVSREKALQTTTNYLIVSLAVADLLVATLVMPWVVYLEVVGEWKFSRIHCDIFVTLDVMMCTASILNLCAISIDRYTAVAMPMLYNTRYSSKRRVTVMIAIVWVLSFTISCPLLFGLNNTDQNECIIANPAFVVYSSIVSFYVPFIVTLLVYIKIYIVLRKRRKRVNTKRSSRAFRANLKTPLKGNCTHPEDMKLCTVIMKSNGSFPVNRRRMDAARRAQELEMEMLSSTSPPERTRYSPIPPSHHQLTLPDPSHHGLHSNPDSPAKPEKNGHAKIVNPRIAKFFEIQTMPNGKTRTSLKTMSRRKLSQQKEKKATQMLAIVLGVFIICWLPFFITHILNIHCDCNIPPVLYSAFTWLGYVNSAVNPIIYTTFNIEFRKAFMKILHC
Procedure: Rats were decapitated. Striatum of brain was rapidly taken on ice, 3 ml of buffer (0.05 M Tris-HCl buffer, containing NaCl 120 mM, KCl 5 mM, MgCl2 1 mM, CaCl2 1 mM) was added, homogenization was conducted, and then 5 ml of buffer was then added. The weight of the homogenized tubes were adjusted using a balance, and centrifugation was conducted. The supernatant was discarded, and 3 ml of buffer was added. Vortex mixer was used for blending, and then 5 ml of buffer was added. Centrifugation was conducted and repeated 3 times. The supernatant was discarded after centrifugation was completed, and the pellets were stored at −80° C. for future use.
Beckman LS-6500 Multi-function Liquid Scintillation Counter was used.
(1) The prepared membrane was applied with appropriate amount of buffer, and homogenizer was used for evenly dispersing. 15 tubes were mixed into a 100 ml container, and appropriate amount of buffer was added to give 50 ml of membrane suspension, which was reserved for future use.
as §7
(3) 100 μL of buffer was added into the total binding tube (TB), 100 μL of Butaclamol (final concentration 10^−5M) was added into the nonspecific binding tube (NB), 100 μL of the test compound (final concentration 10^−5M) was added into the specific binding tube (SB) of each test compound.
(5) Each of the reaction tubes was incubated at 37° C. for 20 min. After the reaction was completed, the bound ligands were rapidly filtered under reduced pressure, and sufficiently washed with ice-chilled assay buffer. The filter was taken out and put into a 3 ml scintillation vial, and 2 ml of toluene scintillation cocktail was added and blended.
(6) The scintillation vials were put into Liquid Scintillation Counter for counting. Inhibition rate(I%)=(Total binding tube cpm−compound cpm)/(Total binding tube cpm−nonspecific binding tube cpm)×100%
Each assay for the compounds was conducted in duplicate for two individual tests.

[13] = system: MK-801 induced high activity in mice; assay: MK-801 induced high activity; type: in vivo; conditions: for ED50: Mus musculus, po; for improvement of MK-801 induced high activity (in words): compared with risperidone
Procedure: Ascorbic acid was provided by Sinopharm Chemical Reagent Co. Ltd.
Subsequently, the spontaneous activities of the mice of each group in 90 min were measured.

[14] = both, Kunming (KM), mouse, in vivo
[15] = read-out: Ki (nM) 5-HT2A, rat cortex membrane, [3H]-Ketanserin
[16] = read-out: Ki (nM) D2, rat striatum membrane, 3H-Spiperone
[17] = rat, intragastric, 1 hour after administration, read-out: Rat CAR ED50

Structure (SMILES)	ED50 [2] [mg/kg]	Ki [4] [nM]	Ki [5] [nM]	Ki [6, 15] [nM]	LD50 [9] [mg/kg]	Ki [10] [nM]	LD50 at 3 days [11] [mg/kg]	ED50 ([1]; mice) [mg/kg]	Catalepsy/Apomorphine induced clambering ([3]; mice, ratio of ED50 values)	Catalepsy/MK-801 induced high activity ([3]; mice, ratio of ED50 values)	Ki [12, 16] [nM]	ED50 [13] [mg/kg]	other results
CN1CCc2ccc(OCCCN3CCC(c4noc5cc(F)ccc45)CC3)cc2C1=O [Compound 5, 7-(3-(4-(6-fluorobenzo[d]isoxazol-3-yl)piperidin-1-yl)propoxy)-2-methyl-3,4-dihydroisoquinolin-1(2H)-one]	35	> 2000	2.4	0.1	258	5.9	168	–	–	–	–	–	ED50 [1]: 0.05 mg/kg; improvement of apomorphine induced clambering symptoms (in words) ([1]; mice): effectively improve; Catalepsy/Apomorphine induced clambering [3, 14]: 700; Catalepsy/MK-801 induced high activity [3, 14]: 875; EPS in effective dosage (in words) ([3]; mouse, in vivo): do not cause EPS; affinity for H1 (in words) [4]: low affinity; affinity for 5-HT1A (in words) [5]: strong affinities; affinity for 5-HT2A (in words) [6]: strong affinities; ED50 ([7]; Rattus norvegicus, 1 h, read-out: Rat CAR ED50 (mg/kg)): 0.32 mg/kg; performance in the rat CAR model (in words) ([7]; rat): markedly better than risperidone; LD50 (po, mg/kg) [8]: 257 mg/kg; affinity for 5HT7 (in words) [10]: high affinity
CN1CCc2ccc(OCCCN3CCN(c4nsc5ccccc45)CC3)cc2C1=O [Compound 14, 7-(3-(4-(benzo[d]isothiazol-3-yl)piperazin-1-yl)propoxy)-2-methyl-3,4-dihydroisoquinolin-1(2H)-one]	32	1360	8.8	7.2	202	16.8	155	0.06	533	457	6.9	0.07	improvement of apomorphine induced clambering symptoms (in words) ([1]; mice): effectively improve; EPS in effective dosage (in words) ([3]; mouse, in vivo): do not cause EPS; ED50 [7, 17]: 0.65 mg/kg; Therapeutic index ([7]; rat): 238; performance in the rat CAR model (in words) ([7]; rat): markedly better than risperidone; improvement of MK-801 induced high activity (in words) [13]: significantly improve
CN1CCc2ccc(OCCCN3CCN(c4ccccc4F)CC3)cc2C1=O [Compound 20, 7-(3-(4-(2-fluorophenyl)piperazin-1-yl)propoxy)-2-methyl-3,4-dihydroisoquinolin-1(2H)-one]	–	> 2000	24.5	32.1	–	29.9	–	–	–	–	54.8	–	–
COc1ccccc1N1CCN(CCCOc2ccc3c(c2)C(=O)N(C)CC3)CC1 [Compound 22, 7-(3-(4-(2-methoxyphenyl)piperazin-1-yl)propoxy)-2-methyl-3,4-dihydroisoquinolin-1(2H)-one]	52	> 2000	6.5	3.2	311	28.1	198	0.19	273	433	9.6	0.12	improvement of apomorphine induced clambering symptoms (in words) ([1]; mice): effectively improve; EPS in effective dosage (in words) ([3]; mouse, in vivo): do not cause EPS; ED50 [7, 17]: 0.49 mg/kg; Therapeutic index ([7]; rat): 404; performance in the rat CAR model (in words) ([7]; rat): markedly better than risperidone; improvement of MK-801 induced high activity (in words) [13]: significantly improve
CN1CCc2ccc(OCCCN3CCN(c4ncccn4)CC3)cc2C1=O [Compound 24, 2-methyl-7-(3-(4-(pyrimidin-2-yl)piperazin-1-yl)propoxy)-3,4-dihydroisoquinolin-1(2H)-one]	47	> 2000	8.8	7.5	190	9.9	146	0.22	214	261	11.9	0.18	ED50 [7, 17]: 1.02 mg/kg; Therapeutic index ([7]; rat): 143
CN1CCc2ccc(OCCCN3CCC(C(=O)c4ccc(F)cc4)CC3)cc2C1=O [Compound 25, 7-(3-(4-(4-fluorobenzoyl)piperidin-1-yl)propoxy)-2-methyl-3,4-dihydroisoquinolin-1(2H)-one]	–	> 2000	17.6	21.7	–	10.8	–	–	–	–	32.8	–	–
Cn1cnc2ccc(OCCCCN3CCN(c4cccc(C(F)(F)F)c4)CC3)cc2c1=O [Compound 28, 3-methyl-6-(4-(4-(3-(trifluoromethyl)phenyl)piperazin-1-yl)butoxy)quinazolin-4(3H)-one]	–	> 2000	12.2	5.8	–	7.4	–	–	–	–	24.8	–	–
Cc1nc2ccc(OCCCN3CCN(c4cccc(C(F)(F)F)c4)CC3)cc2c(=O)n1C [Compound 31, 2,3-dimethyl-6-(3-(4-(3-(trifluoromethyl)phenyl)piperazin-1-yl)propoxy)quinazolin-4(3H)-one]	–	> 2000	19	9.8	–	8.3	–	–	–	–	21.8	–	–
O=C1CCc2ccc(OCCCCN3CCC(c4noc5cc(F)ccc45)CC3)cc2N1 [E, reference compound]	–	178	23.2	–	–	35.6	–	–	–	–	–	–	Ki [12]: 5.6 nM; Ki [6]: 12.7 nM
CN1CCN(C2=Nc3cc(Cl)ccc3Nc3ccccc32)CC1 [clozapine, reference compound]	> 50	–	–	–	–	–	–	17.9	>5.58	>21.93	–	2.28	–
O=C(CCCN1CCC(O)(c2ccc(Cl)cc2)CC1)c1ccc(F)cc1 [haloperidol, reference compound]	0.44	–	–	–	–	–	–	0.08	4.89	4.40	–	0.1	–
Cc1nc2n(c(=O)c1CCN1CCC(c3noc4cc(F)ccc34)CC1)CCCC2 [risperidone, reference compound]	–	–	–	–	–	–	113	–	–	–	–	–	–
